Measurements reported in patent US10968193B2, “Antidiabetic bicyclic compounds” (Merck Sharp & Dohme Corp., priority 2014, dated 2021).
Values joined by “and” are separate entries in the source; they are usually repeats but may differ in a detail not shown here. Equal entries are not always repeated.

What follows are molecules tested against T1, human GPR40 (Homo sapiens, UniProt O14842) (assay: Inositol Phosphate Turnover (IP1) Assay 2). Settings: HEK cells stably expressing human GPR40; 15,000 cells per well; compound acoustically transferred; CisBio IP-One kit.
T1 construct: expressed in transfected cells; host or cells: HEK cells stably expressing the aequorin reporter
Type: cell-based
Method: Human and mouse GPR40 stable cell-lines were generated in CHO cells stably expressing NFAT BLA (Beta-lactamase). A human GPR40 stable cell-line was generated in HEK cells stably expressing the aequorin expressing reporter. The expression plasmids were transfected using lipofectamine (Life Technologies) following manufacturer's instructions. Stable cell-lines were generated following drug selection.
Inositol Phosphate Turnover (IP1) Assay 2:
The assay was performed in 384-well format. HEK cells stably expressing human GPR40 were plated at 15,000 cells per well in growth medium (DMEM/10% fetal calf serum). Cell plates were then incubated 16 hours at 37 degrees in a 5% CO2 incubator.
Measurement of Inositol Phosphate Turnover (IP1) was performed using the CisBio IP-One kit (Part number 62IPAPEB). After the 16 hour incubation, the cells were washed with HEPES buffer and 10 ul of stimulation buffer (prepared as described in the kit) was added to each well. In a separate plate, compounds were diluted in DMSO (400-fold over the final concentration in the assay well) and 25 nl was acoustically transferred to the appropriate well in the assay cell plate. The plates were then incubated for 60 minutes at 37 degrees. 10 ul of detection buffer (also prepared as described in the IP-One kit) was added to each well and the plates were incubated for 60 minutes in the dark. The plates were then read in a Perkin Elmer EnVision or equivalent reader able to measure FRET. Fluorescent ratio of emission at 665 and 620 nm was then converted to IP1 concentration by back calculating from an IP1 standard curve prepared at the time of the assay.

T1 sequence (O14842 whole entry): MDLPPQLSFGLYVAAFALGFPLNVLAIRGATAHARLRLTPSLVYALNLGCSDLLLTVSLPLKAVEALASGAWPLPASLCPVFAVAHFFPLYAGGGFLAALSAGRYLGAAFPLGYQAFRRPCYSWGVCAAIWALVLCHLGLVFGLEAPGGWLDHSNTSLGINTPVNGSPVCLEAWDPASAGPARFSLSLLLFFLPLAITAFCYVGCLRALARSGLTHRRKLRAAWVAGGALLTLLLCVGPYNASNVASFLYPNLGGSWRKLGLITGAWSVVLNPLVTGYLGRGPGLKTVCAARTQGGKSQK

Question: With `COc1cc(-c2ccc([C@H]3CCc4ccc([C@H](C5CC5)[C@H](C)C(=O)O)cc4O3)cc2CN2CCCC(C)(C)C2)c(F)cn1` [Example 142] as the molecule, how does the EC50 read?
Answer: 1.1 nM

Question: How did the EC50 turn out when `COc1cc(-c2ccc(C3CCc4ccc([C@H](C5CC5)[C@H](C)C(=O)O)cc4O3)cc2CN2CC[C@@H](F)C2)c(F)cn1` (stereo partly shown) [Example 16] was run?
Answer: 2.3 nM

Question: How did the EC50 turn out when `COc1cc(-c2ccc(C3CCc4ccc([C@H](C5CC5)[C@H](C)C(=O)O)cc4O3)cc2CN2CCn3cncc3C2)c(F)cn1` (mixture of isomers) [Example 40] was run?
Answer: 184 nM

Question: Which EC50 does the source give for `COc1cc(-c2ccc(C3CCc4ccc([C@H](C5CC5)[C@H](C)C(=O)O)cc4O3)cc2CN2CCCCC23CC3)c(F)cn1` (mixture of isomers) [Example 62] here?
Answer: 0.2 nM and 0.99 nM

Question: For `COc1cc(-c2ccc(C3CCc4ccc([C@H](C5CC5)[C@H](C)C(=O)O)cc4O3)cc2CN2C3CCC2CC(OC)C3)c(F)cn1` (stereo partly shown) [Example 37], which EC50 is on record?
Answer: 4.7 nM

Question: Which EC50 does the source give for `COc1cc(-c2ccc(C3CCc4ccc([C@H](C5CC5)[C@H](C)C(=O)O)cc4O3)cc2CN2CCC[C@@H]2C)c(F)cn1` (stereo partly shown) [Example 38] here?
Answer: 1.8 nM

Question: `COc1cc(-c2ccc([C@H]3CCc4ccc([C@H](C5CC5)[C@H](C)C(=O)O)cc4O3)cc2CN2C3CCC2CC3)c(F)cn1` [Example 148] was tested. Which EC50 did it give?
Answer: 4.2 nM

Question: `COc1cc(-c2ccc(C3CCc4ccc([C@H](C5CC5)[C@H](C)C(=O)O)cc4O3)cc2CN(C)C)c(F)cn1` (single isomer, unassigned) [Example 1b] was tested. Which EC50 did it give?
Answer: 2.9 nM

Question: Which EC50 does the source give for `COc1cc(-c2ccc(C3CCc4ccc([C@H](C5CC5)[C@H](C)C(=O)O)cc4O3)cc2CN2CC[C@H](F)C2)c(F)cn1` (stereo partly shown) [Example 15] here?
Answer: 1.1 nM

Question: For `COc1cc(-c2ncc([C@H]3CCc4ccc([C@H](C5CC5)[C@H](C)C(=O)O)cc4O3)nc2CN2CCCC2)c(F)cn1` (single isomer, unassigned) [Example 110b], which EC50 is on record?
Answer: 139 nM

Question: With `COc1cc(-c2ccc([C@H]3CCc4ccc([C@H](C5CC5)[C@H](C)C(=O)O)cc4O3)cc2CN2CCC[C@@H]2C)c(F)cn1` [Example 136] as the molecule, how does the EC50 read?
Answer: 4.6 nM

Question: How did the EC50 turn out when `COc1cc(-c2ccc(C3CCc4ccc([C@H](C5CC5)[C@H](C)C(=O)O)cc4O3)cc2CN2CC3CC2CO3)c(F)cn1` (stereo partly shown) [Example 43] was run?
Answer: 2.1 nM

Question: With `COc1cc(-c2ccc(C3CCc4ccc([C@H](C5CC5)[C@H](C)C(=O)O)cc4O3)cc2CN2CCOCC23CCC3)c(F)cn1` (mixture of isomers) [Example 71] as the molecule, how does the EC50 read?
Answer: 0.7 nM

Question: How did the EC50 turn out when `COC[C@H]1CCCN1Cc1cc([C@H]2CCc3ccc([C@H](C4CC4)[C@H](C)C(=O)O)cc3O2)ccc1-c1cc(OC)ncc1F` [Example 163] was run?
Answer: 3.3 nM

Question: For `COC[C@@H]1CC[C@@H](COC)N1Cc1cc(C2CCc3ccc([C@H](C4CC4)[C@H](C)C(=O)O)cc3O2)ccc1-c1cc(OC)ncc1F` (stereo partly shown) [Example 58], which EC50 is on record?
Answer: 1.1 nM

Question: `COc1cc(-c2ccc(C3CCc4ccc([C@H](C5CC5)[C@H](C)C(=O)O)cc4O3)cc2CN2CCOC[C@@H]2C)c(F)cn1` (stereo partly shown) [Example 51] was tested. Which EC50 did it give?
Answer: 1 nM

Question: With `COc1cc(-c2ccc(C3CCc4ccc([C@H](C5CC5)[C@H](C)C(=O)O)cc4O3)cc2CN(C)C)c(F)cn1` (single isomer, unassigned) [Example 1a] as the molecule, how does the EC50 read?
Answer: 2.3 nM

Question: `COc1cc(-c2ccc(C3CCc4ccc([C@H](C5CC5)[C@H](C)C(=O)O)cc4O3)cc2CN(C2CC2)C2CC2)c(F)cn1` (mixture of isomers) [Example 52] was tested. Which EC50 did it give?
Answer: 0.35 nM

Question: For `COc1cc(-c2ccc(C3CCc4ccc([C@H](C5CC5)[C@H](C)C(=O)O)cc4O3)cc2CN2CC(C)(OC)C2)c(F)cn1` (mixture of isomers) [Example 73], which EC50 is on record?
Answer: 8.2 nM

Question: Which EC50 does the source give for `CCOc1cc(-c2ccc(C3CCc4ccc([C@H](C5CC5)[C@H](C)C(=O)O)cc4O3)cc2CN2CCCC2)c(F)cn1` (mixture of isomers) [Example 74, (2S,3R)-3-cyclopropyl-3-(2-(4-(2-ethoxy-5-fluoropyridin-4-yl)-3-(pyrrolidin-1-ylmethyl)phenyl)chroman-7-yl)-2-methylpropanoic acid] here?
Answer: 9.3 nM

Question: How did the EC50 turn out when `COc1cc(-c2ccc([C@H]3CCc4ccc([C@H](C5CC5)[C@H](C)C(=O)O)cc4O3)cc2CN2CCCC2(C)C)c(F)cn1` [Example 146] was run?
Answer: 1.8 nM

Question: `COc1cc(-c2ccc(C3CCc4ccc([C@H](C5CC5)[C@H](C)C(=O)O)cc4O3)nc2CN2CCOCC2)c(F)cn1` (mixture of isomers) [Example 12] was tested. Which EC50 did it give?
Answer: 60 nM

Question: Which EC50 does the source give for `COc1cc(-c2ccc(C3CCc4ccc([C@H](C5CC5)[C@H](C)C(=O)O)cc4O3)cc2CN2CC[C@H](OC)C2)c(F)cn1` (stereo partly shown) [Example 19] here?
Answer: 6.4 nM

Question: Which EC50 does the source give for `COc1cc(-c2ccc(C3CCc4ccc([C@H](C5CC5)[C@H](C)C(=O)O)cc4O3)cc2CN(C)CC(F)(F)F)c(F)cn1` (single isomer, unassigned) [Example 21] here?
Answer: 0.76 nM

Question: Which EC50 does the source give for `COc1cc(-c2ccc(C3CCc4ccc([C@H](C5CC5)[C@H](C)C(=O)O)cc4O3)cc2CN2CC[C@@H](F)C2)c(F)cn1` (single isomer, unassigned) [Example 24] here?
Answer: 2.2 nM

Question: How did the EC50 turn out when `COc1cc(-c2ncc([C@@H]3CCc4ccc([C@H](C5CC5)[C@H](C)C(=O)O)cc4O3)nc2CN2CCCC2)c(F)cn1` (single isomer, unassigned) [Example 110a] was run?
Answer: 446 nM

Question: Which EC50 does the source give for `COc1cc(-c2ccc([C@H]3CCc4ccc([C@H](C5CC5)[C@H](C)C(=O)O)cc4O3)cc2[C@@H](C)N(C)C)c(F)cn1` [Example 81, (2S,3R)-3-cyclopropyl-3-((R)-2-(3-((R)-1-(dimethylamino)ethyl)-4-(5-fluoro-2-methoxypyridin-4-yl)phenyl)chroman-7-yl)-2-methylpropanoic acid] here?
Answer: 4 nM

Question: Which EC50 does the source give for `COc1cc(-c2ccc(C3CCc4ccc([C@H](C5CC5)[C@H](C)C(=O)O)cc4O3)cc2CN2CCOCC2(C)C)c(F)cn1` (mixture of isomers) [Example 59] here?
Answer: 0.98 nM

Question: `COc1cc(-c2ccc(C3CCc4ccc([C@H](C5CCC5)[C@H](C)C(=O)O)cc4O3)cc2CN(C)C)c(F)cn1` (single isomer, unassigned) [Example 95] was tested. Which EC50 did it give?
Answer: 1.8 nM

Question: How did the EC50 turn out when `COc1cc(-c2ccc(C3CCc4ccc([C@H](C5CC5)[C@H](C)C(=O)O)cc4O3)cc2CN2CCC2C)c(F)cn1` (stereo partly shown) [Example 56] was run?
Answer: 7 nM

Question: How did the EC50 turn out when `COc1cc(-c2ccc([C@H]3CCc4ccc([C@H](C5CC5)[C@H](C)C(=O)O)cc4O3)cc2CN2CCCCC23CC3)c(F)cn1` [Example 144] was run?
Answer: 0.3 nM

Question: `COc1cc(-c2ccc(C3CCc4ccc([C@H](C5CC5)[C@H](C)C(=O)O)cc4O3)cc2CN2CCCC2)c(C#N)cn1` (mixture of isomers) [Example 78, (2S,3R)-3-(2-(4-(5-cyano-2-methoxypyridin-4-yl)-3-(pyrrolidin-1-ylmethyl)phenyl)chroman-7-yl)-3-cyclopropyl-2-methylpropanoic acid] was tested. Which EC50 did it give?
Answer: 8 nM

Question: For `COc1cc(-c2ccc(C3CCc4ccc([C@H](C5CC5)[C@H](C)C(=O)O)cc4O3)cc2CN2CC(C)C2)c(F)cn1` (mixture of isomers) [Example 35], which EC50 is on record?
Answer: 22 nM

Each molecule was assayed against T1, human GPR40 (assay: Inositol Phosphate Turnover (IP1) Assay 3). Settings: HEK cells stably expressing human GPR40.
Type: cell-based
Summary of the method: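 HEK cells stably expressing human GPR40, plated 16 h before, were treated with compound for 60 min at 37 °C in stimulation buffer. IP1 measured by HTRF (665/620 nm ratio) against an IP1 standard curve; activity normalized to a reference compound, EC50 from 4-parameter fit.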

Question: With `COc1cc(-c2ccc(C3CCc4ccc([C@H](C5CC5)[C@H](C)C(=O)O)c(F)c4O3)cc2CN2CCCCC23CC3)c(F)cn1` (single isomer, unassigned) [Example 203] as the molecule, how does the EC50 read?
Answer: 0.16 nM

Question: `COc1cc(-c2ccc(C3CCc4ccc([C@H](C5CC5)[C@H](C)C(=O)O)cc4O3)c(CN3CCCC3)c2)ccn1` (single isomer, unassigned) [Example 112a] was tested. Which EC50 did it give?
Answer: 2.3 nM

Question: With `COc1cc(-c2ccc(C3CCc4ccc([C@H](C5CC5)[C@H](C)C(=O)O)cc4O3)cc2CNC(C)C)ccn1` (stereo partly shown) [Example 243] as the molecule, how does the EC50 read?
Answer: 810 nM

Question: How did the EC50 turn out when `CCOc1cc(-c2ccc(C3CCc4ccc([C@H](C5CC5)[C@H](C)C(=O)O)cc4O3)cc2CN2CCCC2)c(Cl)cn1` (single isomer, unassigned) [Example 217] was run?
Answer: 57 nM

Question: Which EC50 does the source give for `COc1cc(-c2ccc(C3CCc4ccc([C@H](C5CCC5)[C@H](C)C(=O)O)cc4O3)cc2CN2CCCC2C)c(F)cn1` (stereo partly shown) [Example 103] here?
Answer: 0.09 nM

Question: With `COc1cc(-c2ccc(C3CCc4ccc([C@H](C5CC5)[C@H](C)C(=O)O)cc4O3)cc2CN2CCC(C)(C)C2)ccn1` (stereo partly shown) [Example 282] as the molecule, how does the EC50 read?
Answer: 7.4 nM

Question: For `CCN(Cc1cc(C2CCc3ccc([C@H](C4CC4)[C@H](C)C(=O)O)cc3O2)ccc1-c1cc(OC)ncc1C#N)C(C)C` (stereo partly shown) [Example 294], which EC50 is on record?
Answer: 0.5 nM

Question: For `CCN(C)Cc1cc(C2CCc3ccc([C@H](C4CC4)[C@H](C)C(=O)O)cc3O2)ccc1-c1cc(OC)ncc1C#N` (single isomer, unassigned) [Example 195], which EC50 is on record?
Answer: 12 nM

Question: `CCN(Cc1cc(-c2ccnc(OC)c2)ccc1C1CCc2ccc([C@H](C3CC3)[C@H](C)C(=O)O)cc2O1)C(C)C` (mixture of isomers) [Example 113] was tested. Which EC50 did it give?
Answer: 0.7 nM

Question: `COc1cc(-c2ccc(C3CCc4ccc([C@H](C5CC5)[C@H](C)C(=O)O)cc4O3)cc2C(CN2CCCC2)OC)ccn1` (single isomer, unassigned) [Example 177, (2S, 3R)-3-cyclopropyl-3-((R or S)-2-(3-((R or S)-1-methoxy-2-(pyrrolidin-1-yl)ethyl)-4-(2-methoxypyridin-4-yl)phenylchroman-7-yl)-2-methylpropanoic acid] was tested. Which EC50 did it give?
Answer: 231 nM
